IC50 and IC90 data for 38 compounds are collected here from ChEMBL document CHEMBL4483862, “Open-source discovery of chemical leads for next-generation chemoprotective antimalarials” (2018).

In the test the test system is Plasmodium berghei. The experiment in a line: Luciferase/luciferin-expressing antifolate-resistant parasites were used to infect a culture of HepG2 cells that were pre-incubated with compounds. Infected hepatocytes emit light due to the luciferase reaction. Assay results are presented as the percent inhibition of light emission compared to control. […]. The note with it: sporozoite; for IC90: read-out: LUCIFERASE INFECTION ASSAY - IC90. The format is functional.

The mark [1] stands for this setting: read-out: LUCIFERASE INFECTION ASSAY - IC50.

For `FC(F)(F)c1nc2ccccc2nc1N/N=C/C=C/c1ccccc1`, the IC90 (usually the point of the concentration-response curve where the effect stands at 90%) is > 9.64 µM. The IC50 (usually the concentration that gives 50% inhibition) under setting [1] is > 9.64 µM.
Take `Cc1ccc(S(=O)(=O)N/N=C/c2c(C)nn(-c3ccccc3)c2C)cc1[N+](=O)[O-]`: the IC90 was > 10 µM. Besides, under setting [1], the IC50 is > 10 µM.
With `NC(=O)c1cccc(-c2ccc3ncc(-c4cccs4)n3n2)c1`, the IC90 is > 10 µM. Also, for the setting “HEPG2TOX_HILL_SLOPE 0.701, HEPG2TOX_R_SQUARED 0.861, PBLUC_HILL_SLOPE 2.21, PBLUC_R_SQUARED 0.712, read-out: LUCIFERASE INFECTION ASSAY - IC50”, the IC50 amounted to 4.09 µM.
Take `CN1CCN(c2ccc(-c3cn4c(-c5ccc6ncccc6c5)cnc4cn3)cc2)CC1`: the IC90 was determined as 7.74 µM. Besides, the IC50 (HEPG2TOX_HILL_SLOPE 17, HEPG2TOX_R_SQUARED 0.823, PBLUC_HILL_SLOPE 14.3, PBLUC_R_SQUARED 0.731, read-out: LUCIFERASE INFECTION ASSAY - IC50) was 6.63 µM.
For `N=C1C(c2nc(-c3ccccc3)cs2)C(=O)CN1c1ccc2c(c1)OCCO2` (stereo unspecified), the IC90 was > 8.43 µM. In addition, the IC50 (HEPG2TOX_HILL_SLOPE 0.297, HEPG2TOX_R_SQUARED 0.47, PBLUC_HILL_SLOPE 1.65, PBLUC_R_SQUARED 0.172, read-out: LUCIFERASE INFECTION ASSAY - IC50) was > 8.43 µM.
For the compound `COc1ccc(OC)c(C(C)Nc2ncnc3sccc23)c1` (stereo unspecified), the IC90 was > 10 µM. In addition, under setting [1], the half-maximal inhibitory concentration (IC50) came out at 4.28 µM.
For the compound `O=C(Nc1ncccc1O)c1ccc(-n2ccnc2)cc1`, the concentration for an effect of 90% (IC90) worked out at 8.71 µM. For the setting “PBLUC_HILL_SLOPE 2.04, 2.50, 2.35, PBLUC_R_SQUARED 0.554, 0.491, 0.399, read-out: LUCIFERASE INFECTION ASSAY - IC50”, the IC50 came to 3.31 µM.
`Cc1nn(CC(=O)Nc2cccc(C(F)(F)F)c2)c(C)c1Oc1ccccc1`: the IC90 is 8.01 µM. For the same compound, under setting [1], the IC50 stood at 3.94 µM.
As for `O=[N+]([O-])c1cc(/C=N/O)ccc1Sc1ccccc1`, the IC90 is > 12 µM. Further, the IC50 (PBLUC_HILL_SLOPE 15.1, PBLUC_R_SQUARED 0.212, read-out: LUCIFERASE INFECTION ASSAY - IC50) was > 12 µM.
Regarding `Cc1ccccc1CN1CCN2C=C(C(=O)Nc3cccc(OC(F)(F)F)c3)OC2=NC1=O`, the IC90 is > 10 µM. The IC50 (FFLUC_HILL_SLOPE 6.71, FFLUC_R_SQUARED 0.0114, read-out: LUCIFERASE INFECTION ASSAY - IC50) is > 10 µM.
On to `CCOC(=O)C1=C(C)NC(C)=C(C(=O)OCC)C1C(=O)OCC(=O)NC12CC3CC(CC(C3)C1)C2`, for which the IC90 is > 10 µM. The 50% inhibitory concentration (IC50) (HEPG2TOX_HILL_SLOPE 2.54, HEPG2TOX_R_SQUARED 0.735, read-out: LUCIFERASE INFECTION ASSAY - IC50) is > 10 µM.
As to `Cc1ccc(C)c(-c2nn(CC(=O)N3c4ccccc4CC3C)c(=O)c3ccccc23)c1` (stereo unspecified), the 90% effect concentration (IC90) is > 10 µM. Moreover, the IC50 (HEPG2TOX_HILL_SLOPE 7.77, HEPG2TOX_R_SQUARED 0.247, read-out: LUCIFERASE INFECTION ASSAY - IC50) is > 10 µM.
With `O=C(NCc1ccc(S(=O)(=O)N2CCOCC2)s1)c1ccc(Cl)cc1`, the IC90 was > 8.23 µM. For the same compound, the IC50 under setting [1] was > 8.23 µM.
With `CCCCNC1=C(NS(=O)(=O)c2ccc(NC(C)=O)cc2)C(=O)c2ccccc2C1=O`, the IC90 was > 10 µM. For the setting “PBLUC_HILL_SLOPE 2.17, PBLUC_R_SQUARED 0.634, read-out: LUCIFERASE INFECTION ASSAY - IC50”, the IC50 amounted to 3.66 µM.
Turning to `Cc1sc2nc(-c3cccnc3)nc(NCCc3ccc(S(N)(=O)=O)cc3)c2c1C`, the IC90 was > 10 µM. Moreover, the IC50 (PBLUC_HILL_SLOPE 1.71, PBLUC_R_SQUARED 0.31, read-out: LUCIFERASE INFECTION ASSAY - IC50) was 7.09 µM.
Regarding `CNc1nc(NCc2ccc(C)cc2C)c2sccc2n1`, the IC90 is > 11.1 µM. The IC50 under setting [1] was > 11.1 µM.
For `c1ccc(-c2cc3nc(NCC4CC4)nc(NCC4CCCCC4)c3s2)cc1`, the IC90 was found to be 3.98 µM. The IC50 (HEPG2TOX_HILL_SLOPE 9.69, HEPG2TOX_R_SQUARED 0.573, PBLUC_HILL_SLOPE 14.3, PBLUC_R_SQUARED 0.374, read-out: LUCIFERASE INFECTION ASSAY - IC50) was found to be 3.41 µM.
On to `CC(C)c1ccc(/C=C/C(=O)NN=c2nc[nH]c3ccccc23)cc1`, for which the IC90 was > 10 µM. Moreover, the IC50 (HEPG2TOX_HILL_SLOPE 2.75, HEPG2TOX_R_SQUARED 0.845, PBLUC_HILL_SLOPE 8.02, PBLUC_R_SQUARED 0.305, read-out: LUCIFERASE INFECTION ASSAY - IC50) worked out at 8.64 µM.
For `Cc1cc(=O)n2nc(CSc3nc4ccccc4c(=O)n3C3CCCC3)sc2n1`, the IC90 was > 10 µM. Under setting [1], the IC50 was > 10 µM.
On to `CCCOc1ccccc1NC(=O)c1cnc2c(c1)c(=O)[nH]c(=O)n2C`, for which the IC90 was > 10 µM. For the same compound, under setting [1], the IC50 is > 10 µM.
Consider `O=C(NCc1ccccc1CN1CCOCC1)c1cccc(C(F)(F)F)c1`, for which the IC90 was > 10 µM. The IC50 under setting [1] is > 10 µM.
For the compound `O=C(Nc1nc2c(s1)CCc1ccccc1-2)c1cccc(-n2cnnn2)c1`, the IC90 was > 10 µM. In addition, the IC50 under setting [1] is > 10 µM.
For the compound `O=C(c1cc(S(=O)(=O)Nc2cccc(-n3cccn3)c2)c[nH]1)N1CCCC1`, the IC90 is > 10 µM. The IC50 under setting [1] is 9.51 µM.
For the compound `Cc1cccc(Cn2nc(C(C)(C)C)cc2-c2nnc(SCc3c(F)cccc3Cl)n2C2CCCCC2)c1`, the IC90 is > 5.98 µM. Where the note is “FFLUC_HILL_SLOPE 2.05, FFLUC_R_SQUARED 0.435, PBLUC_HILL_SLOPE 2, PBLUC_R_SQUARED 0.623, read-out: LUCIFERASE INFECTION ASSAY - IC50”, the IC50 stood at 4.03 µM.
As to `Cc1noc(-c2ccc(C(F)(F)F)cc2)c1NC(=O)Nc1cc(Cl)cc(Cl)c1`, the IC90 came to 1.05 µM. Besides, the IC50 under setting [1] amounted to 0.395 µM.
Take `CCOC(=O)Cn1c(=O)c2c3c(sc2n(Cc2ccccc2)c1=O)CCCC3`: the IC90 is > 8.28 µM. For the same compound, under “FFLUC_HILL_SLOPE 1.15, FFLUC_R_SQUARED 0.544, PBLUC_HILL_SLOPE 1.19, PBLUC_R_SQUARED 0.498, read-out: LUCIFERASE INFECTION ASSAY - IC50”, the IC50 came out at 3.9 µM.
With `CN(C)C(=O)c1ccc(-c2cc3cnc(Nc4cccc(O)c4)cc3n2Cc2ccccc2)cc1`, the IC90 turned out to be 9.88 µM. Besides, where the note is “HEPG2TOX_HILL_SLOPE 12, HEPG2TOX_R_SQUARED 0.529, PBLUC_HILL_SLOPE 3.22, PBLUC_R_SQUARED 0.748, read-out: LUCIFERASE INFECTION ASSAY - IC50”, the IC50 is 4.99 µM.
As for `COc1cc(OC)cc(C(=O)N(Cc2ccccc2)c2nc(-c3ccc(Cl)cc3Cl)cs2)c1`, the IC90 was > 10 µM. For the same compound, under setting [1], the IC50 was > 10 µM.
For `CCN(c1ccccc1)S(=O)(=O)c1ccc(C(=O)NC2CCCCC2)cc1`, the IC90 is > 10 µM. For the same compound, where the note is “HEPG2TOX_HILL_SLOPE 0.154, HEPG2TOX_R_SQUARED 0.656, read-out: LUCIFERASE INFECTION ASSAY - IC50”, the IC50 is > 10 µM.
In the case of `CCCN(CC(=O)Nc1cc(-c2ccccc2)sc1C(=O)OCC)Cc1nnc(-c2ccco2)o1`, the IC90 was > 10 µM. The IC50 (PBLUC_HILL_SLOPE 3.67, PBLUC_R_SQUARED 0.341, read-out: LUCIFERASE INFECTION ASSAY - IC50) was 7.32 µM.
With `COc1cc(CSc2nc3ccccc3c(=O)n2C(C)C)ccc1OC(F)F`, the IC90 was found to be 3.99 µM. For the same compound, the IC50 (HEPG2TOX_HILL_SLOPE 1.32, HEPG2TOX_R_SQUARED 0.932, PBLUC_HILL_SLOPE 1.38, PBLUC_R_SQUARED 0.834, read-out: LUCIFERASE INFECTION ASSAY - IC50) was 0.81 µM.
As to `Clc1ccccc1-c1cn2c(-c3ccncc3)cnc2cn1`, the IC90 was > 10.8 µM. Further, under “PBLUC_HILL_SLOPE 5.69, PBLUC_R_SQUARED 0.296, read-out: LUCIFERASE INFECTION ASSAY - IC50”, the IC50 was determined as 10.2 µM.
Regarding `COCCNc1cc(C)nc2c(-c3ccc(C)cc3)c(C)nn12`, the concentration for an effect of 90% (IC90) is > 10.6 µM. The IC50 (HEPG2TOX_HILL_SLOPE 7.65, HEPG2TOX_R_SQUARED 0.721, PBLUC_HILL_SLOPE 1.1, PBLUC_R_SQUARED 0.545, read-out: LUCIFERASE INFECTION ASSAY - IC50) is 3.65 µM.
On to `CCN(CC)c1ccc(/C=N/Nc2ccc(C)cc2C)c(O)c1`, for which the IC90 was > 10 µM. The IC50 (FFLUC_HILL_SLOPE 17.2, FFLUC_R_SQUARED 0.349, PBLUC_HILL_SLOPE 3.28, PBLUC_R_SQUARED 0.115, read-out: LUCIFERASE INFECTION ASSAY - IC50) was found to be 5.38 µM.
In the case of `CCOc1ccc(C(=O)CCC(=O)O)cc1`, the IC90 was > 14.8 µM. In addition, under setting [1], the half-maximal inhibitory concentration (IC50) is > 14.8 µM.
`CSc1nnc(-c2ccc(C(C)(C)C)cc2)[nH]1`: the IC90 is 10.9 µM. Besides, the IC50 (FFLUC_HILL_SLOPE 15.7, FFLUC_R_SQUARED 0.752, PBLUC_HILL_SLOPE 2.05, PBLUC_R_SQUARED 0.759, read-out: LUCIFERASE INFECTION ASSAY - IC50) was determined as 3.73 µM.
Take `COc1ccc(C2=NN=C/C2=N\Nc2ccc(C(F)(F)F)cc2)cc1`: the IC90 was found to be 7.39 µM. For the same compound, where the note is “HEPG2TOX_HILL_SLOPE 2.77, HEPG2TOX_R_SQUARED 0.967, PBLUC_HILL_SLOPE 4.55, PBLUC_R_SQUARED 0.276, read-out: LUCIFERASE INFECTION ASSAY - IC50”, the IC50 was determined as 4.56 µM.
For the compound `Cc1nc2ccccc2n1CCNC(=O)c1ccc(Cl)cc1NC(=O)c1cccs1`, the IC90 came out at 4.77 µM. Moreover, the IC50 (PBLUC_HILL_SLOPE 48.3, PBLUC_R_SQUARED 0.528, read-out: LUCIFERASE INFECTION ASSAY - IC50) came to 4.56 µM.
